Laboratory results taken from patent US9381191B2, “Imidazopyridine derivatives useful in treating diabetes” (METABRAIN RESEARCH, priority 2012, dated 2016).

Assays:
[1] = system: isolated perfused pancreases of N0STZ diabetic rats; assay: Insulin secretion in response to glucose at isolated perfused pancreases of N0STZ diabetic rats; design: species or system rat; conditions: glucose 16.5 mM, control group 560 ± 71
Method: The pancreas was taken on rats made to be diabetic by injection of Streptozotocin on the day of birth and anaesthetized with Pentobarbital (Nembutal©: 45 mg/kg; intraperitoneal route). These rats have a specific deficiency of the insulin response to glucose, as observed in humans with diabetes of type II. The isolation and the perfusion of the pancreas were achieved according to a modification of the procedure described by Sussman et al.. The effect of the compounds or reference substances is tested for 35 minutes (from t=20 min to t=55 min) in Krebs buffer, and then 20 minutes (from t=55 min to t=75 min) in the presence of glucose 16.5 mM. The concentration of insulin secreted into the medium is measured by an Elisa assay (ELISA Alpco Cat no. 80-INSRTH-E10). The results are expressed as an average +/−SEM (Standard Error of the Mean) of several experiments.

isolated rat hepatocytes = assay: Hepatic production of glucose, 20 h incubation; format: cell-based, Wistar rat; conditions: for HGP % of ctrl @ 50 μM / HGP % of ctrl @ 100 μM: rat hepatocytes
Method: The hepatocytes are isolated from Wistar rat liver having fasted for 24 h after perfusion of collagenase in the portal vein. 1) The freshly isolated hepatocytes are sown in 6-well plates coated with collagen and containing an adhesion medium (Williams Medium). After adhesion, the medium is replaced with RPMI 1640 medium without any glucose, containing hydrocortisone (7·10^−5M) for a duration from 16 to 18 h. The next day, the glucose hepatic production test is conducted in a Krebs medium for 3 h. The basal conditions are cells incubated with only Krebs, the stimulated conditions are the cells placed in Krebs+lactate+pyruvate, the produced conditions are the cells exposed to chemical compounds in a Krebs/lactate/pyruvate medium. In the case when the compounds are dissolved in DMSO, all the conditions of the tests are met in the presence of a final concentration of 0.1% DMSO. The positive control of the test is the mercaptopicolinate known for its inhibitory action on hepatic production of glucose via the phosphoenolpyruvate carboxykinase. For short term treatments, the compounds are incubated for 3 h. For long term treatments, the compounds are incubated for 20 h at the moment when the hepatocytes are cultivated in RPMI and then added during the hepatic production test for 3 h. At the end of the 3 hours of incubation, the supernatant is recovered for measurement of glucose with a colorimetric method using glucose oxidase. The cells are lysed with a 0.1% NaOH aqueous solution in order to measure the amount of protein with the Lowry method. The results are expressed in mmol of glucose per mg of protein.

GK rats = assay: Antidiabetic activity in GK (Goto-Kakisaki) rats; format: in vivo, rat; conditions: single oral dose 50 mg/kg
Method: The antidiabetic activity of compound 118 was evaluated in GK rats, a non-obese model of diabetes of type II. This model was obtained by cross-breeding of Wistar rats selected on the basis of a slight intolerance to glucose. These rats have the majority of dysfunctions observed in diabetes of type II in humans: hyperglycaemia, intolerance to glucose, insulin-resistance, and deteriorated insulin response to glucose. These animals were bred at Metabrain and were housed in an animal housing facility with a regulated temperature (22±2° C.) under constant humidity (50±20%) with a day/night cycle of 12 h (light from 7 h-19 h) and have access ad libitum to food and drink. The housing and experimentation conditions comply with the European directives relating to health and ethical treatment of laboratory animals (ETS123). In this study, the rats used are male 16-week old GK rats having fasted for 2 hours before beginning the study (postabsorptive condition). Monitoring of glycaemia is carried out on 2 groups of rats: One group treated with the compound 118 orally at the single dose of 50 mg/kg and a control group treated orally with the carrier. A blood sample was taken at T0 just before administration of the compound 118 or of the carrier and at times T1 h, T2 h, T4 h and T6 h after administration. The determination of glycaemia is achieved from a drop of blood taken from the tail measured with a glucometer Accu-Check Performa. The results shown below are expressed as a percentage of the decrease of glycaemia at T1 h, T2 h, T4 h and T6 h for the group treated with the compound 118 as compared with the control group

INS-1 cells = assay: Stimulation test of insulin secretion by INS-1 cells; format: cell-based; conditions: Rattus norvegicus, INS1, 1 h, insulin secretion by INS-1 cells in response to glucose; for insulin secretion, % of control at 10 µM: read-out: HGP % of ctrl @ 10 μM
Summary of the method: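 Rat INS-1 beta cells, starved 16 h in 5 mM glucose and pre-incubated 30 min in Krebs with 2.8 mM glucose, were exposed 1 h to compound in Krebs pH 7.4 with 3.5 mM glucose and 0.1% albumin. Secreted insulin was measured by ELISA in triplicate. Stimulation was scored at ≥130% of control.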

| Structure (SMILES) | Insulin secretion peak at G16.5 mM, Tested product ([1]; tested concentration 10 μM) | HGP % of ctrl @ 50 μM (isolated rat hepatocytes) | % of activity on glycemia (GK rats; T1 h after administration, p = 0.0242) | % of activity on glycemia (GK rats; T2 h after administration, p = 0.0171) | % of activity on glycemia (GK rats; T4 h after administration, p = 0.1468 NS) | % of activity on glycemia (GK rats; T6 h after administration, p = 0.2450 NS) | reduction of hyperglycaemia (GK rats) | insulin secretion, % of control at 10 µM (INS-1 cells) | insulin secretion, % of control at 50 µM (INS-1 cells; 50 μM, read-out: HGP % of ctrl @ 50 μM) | inhibition of hepatic production of glucose (isolated rat hepatocytes) | HGP % of ctrl @ 100 μM (isolated rat hepatocytes) | Insulin secretion peak at G16.5 mM, Tested product ([1]; tested concentration 1 μM) |
| --- | --- | --- | --- | --- | --- | --- | --- | --- | --- | --- | --- | --- |
| O=C(O)COCc1nc2ccccn2c1C#Cc1ccc(F)cc1 [Derivative 44, 2-((3-((4-fluorophenyl)ethynyl)-imidazo[1,2-a]pyridin-2-yl)methoxy)acetic acid] | 1 724 μU/min. | – | – | – | – | – | – | – | – | – | – | – |
| O=C(O)CSCc1nc2ccc(Cl)cn2c1C#Cc1cccc(C(F)(F)F)c1 [Derivative 118, 2-[[6-chloro-3-[2-[3-(trifluoro-methyl)-phenyl]ethynyl]imidazo[1,2-a]pyridin-2-yl]methylsulfanyl] acetic acid] | – | 57 % of ctrl | −14% | −15% | −10% | −8% | capable of reducing hyperglycaemia | – | – | – | – | – |
| CCONC(=O)COCc1nc2ccccn2c1C#Cc1ccc(F)cc1 [Derivative 58, N-ethoxy-2-((3-((4-fluorophenyl)ethynyl)imidazo [1,2-a]pyridin-2-yl)methoxy) acetamide] | – | 32 % of ctrl | – | – | – | – | – | 127% | 233% | strongest inhibitions | 17 % of ctrl | – |
| CC(C)OC(=O)COCc1nc2ccccn2c1C#Cc1ccc(F)cc1 [Derivative 54, isopropyl 2-((3-((4-fluorophenyl)ethynyl)imidazo [1,2-a]pyridin-2-yl)methoxy) acetate] | 1 637 μU/min. | 64 % of ctrl | – | – | – | – | – | 203% | – | – | 44 % of ctrl | 961 ± 130 μU/min. |
